Like-named read-outs stand apart in the source and are kept apart here.

Assay [1] deals with ASK1 T838 auto phosphorylation in HEK-293T cells (Homo sapiens (Human), UniProt Q99683). Description: ASK1 (AUTO PHOS T838) assay, MSD format. The format is cell-based.
For assay [2], the target named is GST-hASK1 (Homo sapiens (Human), UniProt Q99683). Description: ASK1 TR-FRET assay. The assay is classed as biochemical. As to conditions: 5 nM GST-hASK1, 100 μM ATP, 2 μM STK Substrate 3. The procedure:
The protein kinase activity of 5 nM GST-hASK1(Life Technologies PV4011) was assayed with 100 μM ATP and 2 μM of HTRF biotinylated STK Substrate 3 (CisBio Kit 62ST3PEJ), at ambient temperature in 25 mM Hepes, pH 7.5, 50 mM NaCl, 10 mM MgCl2, 0.02% Brij-35, 1 mM DTT, and 1% DMSO.
After a 10 minute pre-incubation, ASK1 protein kinase activity was initiated by addition of 10 μL of 300 μM ATP.

In assay [3] the target is ASK1/MAP3K5 (Homo sapiens (Human), UniProt Q99683). Description: ASK1/MAP3K5 assay by Reaction Biology Corp. The assay is classed as biochemical. To be noted: 20 μM myelin basic protein (MBP), 10 μM ATP. The protocol: ASK1/MAP3K5 was used as the protein kinase and 20 μM of myelin basic protein (MBP) and 10 μM ATP were used as the substrate.
[4] abbreviates: HEK 293T cells transfected with ASK1-V5 full length plasmid, compounds 1 hr at 37° C., read-out: IC50.

Chain of GST-hASK1 (Q99683 649-946): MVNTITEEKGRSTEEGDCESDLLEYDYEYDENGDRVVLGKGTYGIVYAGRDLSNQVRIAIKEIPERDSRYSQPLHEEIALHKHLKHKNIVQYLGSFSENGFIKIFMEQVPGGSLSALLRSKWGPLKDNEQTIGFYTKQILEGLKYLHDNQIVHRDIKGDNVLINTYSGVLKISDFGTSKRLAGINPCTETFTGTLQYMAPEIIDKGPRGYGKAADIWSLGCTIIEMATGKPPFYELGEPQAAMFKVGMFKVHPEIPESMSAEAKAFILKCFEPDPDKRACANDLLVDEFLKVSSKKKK
Chain of ASK1 T838 auto phosphorylation in HEK-293T cells (Q99683 whole entry): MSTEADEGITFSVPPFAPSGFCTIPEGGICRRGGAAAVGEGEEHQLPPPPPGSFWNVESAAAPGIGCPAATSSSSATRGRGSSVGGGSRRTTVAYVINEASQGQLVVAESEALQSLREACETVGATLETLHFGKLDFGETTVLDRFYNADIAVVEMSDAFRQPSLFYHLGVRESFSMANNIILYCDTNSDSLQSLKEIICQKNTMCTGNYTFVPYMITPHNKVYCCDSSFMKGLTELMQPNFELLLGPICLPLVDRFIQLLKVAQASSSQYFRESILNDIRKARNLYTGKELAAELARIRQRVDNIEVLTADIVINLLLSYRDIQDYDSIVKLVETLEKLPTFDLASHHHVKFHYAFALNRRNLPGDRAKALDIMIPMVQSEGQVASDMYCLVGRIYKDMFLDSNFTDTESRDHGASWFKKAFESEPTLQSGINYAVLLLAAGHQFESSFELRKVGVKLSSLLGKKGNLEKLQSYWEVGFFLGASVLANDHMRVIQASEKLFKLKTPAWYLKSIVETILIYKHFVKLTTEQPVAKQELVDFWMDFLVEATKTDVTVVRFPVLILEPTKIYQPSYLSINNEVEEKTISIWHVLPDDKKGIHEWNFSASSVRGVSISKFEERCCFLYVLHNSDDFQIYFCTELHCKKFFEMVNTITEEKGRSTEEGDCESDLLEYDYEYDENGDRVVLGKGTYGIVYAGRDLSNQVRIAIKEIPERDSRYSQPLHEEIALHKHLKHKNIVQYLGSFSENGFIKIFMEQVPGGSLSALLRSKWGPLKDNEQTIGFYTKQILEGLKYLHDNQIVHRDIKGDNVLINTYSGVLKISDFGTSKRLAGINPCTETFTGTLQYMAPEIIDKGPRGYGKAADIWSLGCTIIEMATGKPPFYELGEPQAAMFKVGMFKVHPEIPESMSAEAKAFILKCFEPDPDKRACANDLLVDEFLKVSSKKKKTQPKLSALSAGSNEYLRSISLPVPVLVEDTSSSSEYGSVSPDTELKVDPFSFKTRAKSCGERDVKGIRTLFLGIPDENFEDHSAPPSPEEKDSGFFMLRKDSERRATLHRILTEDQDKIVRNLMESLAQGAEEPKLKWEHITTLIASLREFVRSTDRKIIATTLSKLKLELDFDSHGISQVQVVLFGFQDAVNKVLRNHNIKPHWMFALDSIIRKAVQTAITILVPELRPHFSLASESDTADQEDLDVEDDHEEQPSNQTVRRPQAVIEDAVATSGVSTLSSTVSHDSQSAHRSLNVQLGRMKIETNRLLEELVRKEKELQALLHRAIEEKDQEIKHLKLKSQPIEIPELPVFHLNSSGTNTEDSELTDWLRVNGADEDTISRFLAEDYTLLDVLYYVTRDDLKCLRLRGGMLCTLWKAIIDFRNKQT
Chain of ASK1/MAP3K5 (Q99683 whole entry): as above

As to `O=C1Nc2cccc(n2)-c2nncn2CCCCOc2ccc(C3CCOC3)cc21` (racemic) [Example 15, rac-5^5-(Tetrahydrofuran-3-yl)-1^4H-6-oxa-3-aza-2(2,6)-pyridina-1(3,4)-triazola-5(1,2)-benzenacyclodecaphan-4-one], the IC50 is under 1 µM in assay [1] (setting [4]), under 0.1 µM in assay [2] and under 0.1 µM in assay [3].
For `O=C1Nc2cccc(n2)-c2nncn2CCCCOc2ccc(N3C4CCC3COC4)cc21` [Example 5, 5^5-(3-Oxa-8-azabicyclo[3.2.1]octan-8-yl)-1^4H-6-oxa-3-aza-2(2,6)-pyridina-1(3,4)-triazola-5(1,2)-benzenacyclodecaphan-4-one], the IC50 in assay [1] (setting [4]) is under 1 µM; in assay [2], under 0.1 µM; in assay [3], under 0.1 µM.
`O=C1Nc2cccc(n2)-c2nncn2CCCCOc2ccc(N3CC4CC(C3)O4)cc21` [Example 6, 5^5-(6-Oxa-3-azabicyclo[3.1.1]heptan-3-yl)-1^4H-6-oxa-3-aza-2(2,6)-pyridina-1(3,4)-triazola-5(1,2)-benzenacyclodecaphan-4-one]: the figures for the half-inhibitory concentration (IC50) in assay [1] (setting [4]), in assay [2] and in assay [3] were under 1 µM, under 0.1 µM and under 0.1 µM, respectively.
For the compound `O=C1Nc2cccc(n2)-c2nncn2CCCCOc2ccc(N3C4COCC3C4)cc21` [Example 8, 5^5-(3-Oxa-6-azabicyclo[3.1.1]heptan-6-yl)-1^4H-6-oxa-3-aza-2(2,6)-pyridina-1(3,4)-triazola-5(1,2)-benzenacyclodecaphan-4-one], the IC50 in assay [1] (setting [4]) was 1 to 10 µM; in assay [2], under 0.1 µM; in assay [3] it was under 0.1 µM.
Consider `O=C1Nc2cccc(n2)-c2nncn2CCCCOc2ccc(N3CC(F)(F)C3)cc21` [Example 9, 5^5-(3,3-Difluoroazetidin-1-yl)-1^4H-6-oxa-3-aza-2(2,6)-pyridina-1(3,4)-triazola-5(1,2)-benzenacyclodecaphan-4-one], for which the IC50 in assay [1] (setting [4]) is under 1 µM; in assay [2], under 0.1 µM; in assay [3] it was under 0.1 µM.
On to `O=C1Nc2cccc(n2)-c2nncn2CCCCOc2ccc(N3CCC(F)(F)C3)cc21` [Example 10, 5^5-(3,3-Difluoropyrrolidin-1-yl)-1^4H-6-oxa-3-aza-2(2,6)-pyridina-1(3,4)-triazola-5(1,2)-benzenacyclodecaphan-4-one], for which the IC50 in assay [1] (setting [4]) was under 1 µM; in assay [2], under 0.1 µM; in assay [3] it was under 0.1 µM.
Turning to `O=C1Nc2cccc(n2)-c2nncn2CCCCOc2ccc(N3CCCC(F)(F)C3)cc21` [Example 11, 5^5-(3,3-Difluoropiperidin-1-yl)-1^4H-6-oxa-3-aza-2(2,6)-pyridina-1(3,4)-triazola-5(1,2)-benzenacyclodecaphan-4-one], the values for the IC50 in assay [1] (setting [4]), in assay [2] and in assay [3] were under 1 µM, under 0.1 µM and under 0.1 µM, respectively.
Turning to `O=C1Nc2cccc(n2)-c2nncn2CCCCOc2ccc(N3CCC(F)(F)CC3)cc21` [Example 12, 5^5-(4,4-Difluoropiperidin-1-yl)-1^4H-6-oxa-3-aza-2(2,6)-pyridina-1(3,4)-triazola-5(1,2)-benzenacyclodecaphan-4-one], the IC50 in assay [1] (setting [4]) is under 1 µM; in assay [2], under 0.1 µM; in assay [3], under 0.1 µM.
For the compound `O=C1Nc2cccc(n2)-c2nncn2CCCCOc2ccc(C3CCOCC3)cc21` [Example 17, 5^5-(Tetrahydro-2H-pyran-4-yl)-1^4H-6-oxa-3-aza-2(2,6)-pyridina-1(3,4)-triazola-5(1,2)-benzenacyclodecaphan-4-one], the IC50 in assay [1] (setting [4]) is under 1 µM; in assay [2] it was under 0.1 µM; in assay [3], under 0.1 µM.
Regarding `Cc1ccc2c(c1)C(=O)Nc1cccc(n1)-c1nncn1CCCCO2` [Example 18, 5^5-Methyl-1^4H-6-oxa-3-aza-2(2,6)-pyridina-1(3,4)-triazola-5(1,2)-benzenacyclodecaphan-4-one], the figures for the IC50 in assay [1] (setting [4]), in assay [2] and in assay [3] were under 1 µM, under 0.1 µM and under 0.1 µM, respectively.
`N#Cc1ccc2c(c1)C(=O)Nc1cccc(n1)-c1nncn1CCCCO2` [Example 20, 4-Oxo-1^4H-6-oxa-3-aza-2(2,6)-pyridina-1(3,4)-triazola-5(1,2)-benzenacyclodecaphane-5^5-carbonitrile]: the IC50 in assay [1] (setting [4]) was under 1 µM; in assay [2], under 0.1 µM; in assay [3], under 0.1 µM.
Turning to `O=C1Nc2cccc(n2)-c2nncn2CCCCOc2ccc(-n3cnc(C4CC4)c3)cc21` [Example 22, 5^5-(4-Cyclopropyl-1H-imidazol-1-yl)-1^4H-6-oxa-3-aza-2(2,6)-pyridina-1(3,4)-triazola-5(1,2)-benzenacyclodecaphan-4-one], the IC50 is under 1 µM in assay [1] (setting [4]), under 0.1 µM in assay [2] and under 0.1 µM in assay [3].
With `Cn1nccc1-c1ccc2c(c1)C(=O)Nc1cccc(n1)-c1nncn1CCCCO2` [Example 23, 5^5-(1-Methyl-1H-pyrazol-5-yl)-1^4H-6-oxa-3-aza-2(2,6)-pyridina-1(3,4)-triazola-5(1,2)-benzenacyclodecaphan-4-one], the IC50 was under 1 µM in assay [1] (setting [4]), under 0.1 µM in assay [2] and under 0.1 µM in assay [3].
`O=C1Nc2cccc(n2)-c2nncn2CCCCOc2ccc(-c3cccnc3)cc21` [Example 26, 5^5-(Pyridin-3-yl)-1^4H-6-oxa-3-aza-2(2,6)-pyridina-1(3,4)-triazola-5(1,2)-benzenacyclodecaphan-4-one]: the figures for the IC50 in assay [1] (setting [4]), in assay [2] and in assay [3] were under 1 µM, under 0.1 µM and under 0.1 µM, respectively.
Consider `O=C1Nc2cccc(n2)-c2nncn2CCCCOc2ccc(-c3ccncc3)cc21` [Example 27, 5^5-(Pyridin-4-yl)-1^4H-6-oxa-3-aza-2(2,6)-pyridina-1(3,4)-triazola-5(1,2)-benzenacyclodecaphan-4-one], for which the IC50 in assay [1] (setting [4]) is under 1 µM; in assay [2], under 0.1 µM; in assay [3], under 0.1 µM.
Regarding `Cn1cncc1-c1ccc2c(c1)C(=O)Nc1cccc(n1)-c1nncn1CCCCO2` [Example 29, 5^5-(1-Methyl-1H-imidazol-5-yl)-1^4H-6-oxa-3-aza-2(2,6)-pyridina-1(3,4)-triazola-5(1,2)-benzenacyclodecaphan-4-one], the IC50 in assay [1] (setting [4]) was under 1 µM; in assay [2] it was under 0.1 µM; in assay [3], under 0.1 µM.
For the compound `O=C1Nc2cccc(n2)-c2nncn2C/C=C/COc2ccc(F)cc21` [Example 158, (E)-5^5-Fluoro-1^4H-6-oxa-3-aza-2(2,6)-pyridina-1(3,4)-triazola-5(1,2)-benzenacyclodecaphan-8-en-4-one], the IC50 in assay [1] (setting [4]) fell in the range of 1 to 10 µM; in assay [2] it was 0.1 to 1 µM.
For `O=C1Nc2cccc(n2)-c2nncn2C/C=C\COc2ccc(F)cc21` [Example 159, (Z)-5^5-Fluoro-1^4H-6-oxa-3-aza-2(2,6)-pyridina-1(3,4)-triazola-5(1,2)-benzenacyclodecaphan-8-en-4-one], the IC50 is under 1 µM in assay [1] (setting [4]) and under 0.1 µM in assay [2].
`O=C1Nc2cccc(n2)-c2nncn2C/C=C\COc2ccc(Br)cc21` [Example 161, (Z)-5^5-Bromo-1^4H-6-oxa-3-aza-2(2,6)-pyridina-1(3,4)-triazola-5(1,2)-benzenacyclodecaphan-8-en-4-one]: the 50% inhibitory concentration (IC50) in assay [1] is 1 to 10 µM; in assay [2], under 0.1 µM.
Take `O=C1Nc2cccc(n2)-c2nncn2C/C=C/COc2ccc(Br)cc21` [Example 162, (E)-5^5-Bromo-1^4H-6-oxa-3-aza-2(2,6)-pyridina-1(3,4)-triazola-5(1,2)-benzenacyclodecaphan-8-en-4-one]: the IC50 was 1 to 10 µM in assay [1] (setting [4]) and under 0.1 µM in assay [2].
Regarding `O=C1Nc2cccc(n2)-c2nncn2C/C=C/COc2c(Br)cccc21` [Example 163, (E)-5^3-Bromo-1^4H-6-oxa-3-aza-2(2,6)-pyridina-1(3,4)-triazola-5(1,2)-benzenacyclodecaphan-8-en-4-one], the IC50 in assay [1] (setting [4]) was over 10 µM; in assay [2], 0.1 to 1 µM.
For the compound `O=C1Nc2cccc(n2)-c2nncn2C/C=C\COc2c(Br)cccc21` [Example 164, (Z)-5^3-Bromo-1^4H-6-oxa-3-aza-2(2,6)-pyridina-1(3,4)-triazola-5(1,2)-benzenacyclodecaphan-8-en-4-one], the IC50 in assay [1] (setting [4]) is over 10 µM; in assay [2] (class given in words), at least 10 µM.
With `O=C1Nc2cccc(n2)-c2nncn2C/C=C/COc2c1cccc2C(F)(F)F` [Example 166, (E)-5^3-(Trifluoromethyl)-1^4H-6-oxa-3-aza-2(2,6)-pyridina-1(3,4)-triazola-5(1,2)-benzenacyclodecaphan-8-en-4-one], the IC50 is over 10 µM in assay [1] (setting [4]) and 1 to 10 µM in assay [2].
For `O=C1Nc2cccc(n2)-c2nncn2C/C=C\COc2c1cccc2C(F)(F)F` [Example 167, (Z)-5^3-(Trifluoromethyl)-1^4H-6-oxa-3-aza-2(2,6)-pyridina-1(3,4)-triazola-5(1,2)-benzenacyclodecaphan-8-en-4-one], the IC50 in assay [1] (setting [4]) is over 10 µM; in assay [2] (class given in words), at least 10 µM.
For the compound `O=C1Nc2cccc(n2)-c2nncn2C/C=C\COc2ccc(N3CCOCC3)cc21` [Example 169, (Z)-5^5-Morpholino-1^4H-6-oxa-3-aza-2(2,6)-pyridina-1(3,4)-triazola-5(1,2)-benzenacyclodecaphan-8-en-4-one], the IC50 was under 1 µM in assay [1] (read-out: IC50) and under 0.1 µM in assay [2].

Values taken from US11168095B2, “ASK1 inhibiting agents” (BIOGEN MA INC., priority 2017, dated 2021).
